Values quoted from earlier work in patent publication US20080300217A1, “Combination Therapy with Fumaric Acid Esters for the Treatment of Autoimmune and/or Inflammatory Disorders” (ADITECH PHARMA AB, priority 2005, published 2008).

Settings: pentoxifylline added to the standard Fumaderm treatment; psoriasis patients

SMILES: CC(=O)CCCCn1c(=O)c2c(ncn2C)n(C)c1=O [pentoxifylline]
- flush symptoms in patients: reduced the flush symptoms in patients
